The record followed here is patent US20240417393A1, “CERTAIN 2,5-DIAZABICYCLO[4.2.0]OCTANES AS GLP-1 RECEPTOR MODULATORS” (ASTRAZENECA AB, priority 2021, published 2024).

One experiment deals with T1, human GLP-1R receptor (Homo sapiens, UniProt P43220, L260F).
T1 construct: expressed in transfected cells; host or cells: CHO-K1 (ATCC CCL-61)
Description: CHOK1 GLP-1R cAMP Assay (HTRF). The class given is cell-based. Conditions: CHO-K1 cells stably expressing human GLP-1R (Leu260Phe variant), 20 min at rt. The procedure:
A cell line stably expressing the human GLP-1R receptor (NM_002062.5, including the naturally-occurring variant Leu260Phe) in a CHO-K1 (ATCC® CCL-61™) was used for assay.
GLP-1 receptor mediated agonist activity was determined in a cell-based assay measuring cyclic adenosine monophosphate (cAMP) levels in cells using Homogeneous Time-Resolved Fluorescence (HTRF) cAMP detection kit (CisBio catalog #62AM4PEC, cAMP Gs Dynamic range kit). The cAMP detection method is based on a competitive immunoassay, in which cAMP produced by the cells and cAMP labeled with the dye d2 compete for binding to a Europium-Cryptate-labeled anti-cAMP antibody. The specific HTRF signal is inversely proportional to the concentration of cAMP.
Compounds were added to individual well in 384 well-assay plates (Greiner #784076) using an Echo (LabCyte) dispenser from 10 mM stocks. Varying concentration of compounds were added to wells, and DMSO was used to normalize each well to a volume of 100 nL. A dose response curve of GLP-1(7-36)NH2 (Bachem H-6795) was included in each run. 5 μL of cAMP concentration response standards are applied in specified wells in the assay plates. Cryo-preserved cells are thawed and resuspended in assay buffer pre-heated to 37° C. (20 mM 2-[4-(2-hydroxyethyl)piperazin-1-yl]ethanesulfonic acid (HEPES) pH 7.4, 1× Hank's Balanced Salt Solution (HBSS, Life Technologies #14065) supplemented with 0.1% (w/v) bovine serum albumin (Sigma, A-7030)). Cells were centrifuged at 250*g for 5 min at rt, and resuspended in room tempered assay buffer to a final density of 0.16*10^6 cell/mL, to deliver 800 cells/well. 5 μL of assay buffer with 1 mM 3-isobutyl-1-methylxanthin (IBMX; Sigma cat I-7018) was dispensed per well in assay plates using a multidrop combi (Thermo Scientific) subsequently 5 μL of cell suspension was distributed to relevant wells in the assay using a multidrop dispenser. Assay plates were incubated 20 min at rt.
Detection reagents, Europium-Cryptate-labeled anti-cAMP antibody and cAMP labeled with the dye d2, are diluted in lysis buffer, provided by the manufacturer. 5 μL of each detection reagent is supplemented to each assay well using a multidrop dispenser. Assay plates are incubated in the dark for at least one h. The HTRF signal is measured using the HTRF module (excitation: 337 nm, emission A: 665 nm and emission B: 620 nm) in Pherastar FSX (BMG Labtech).
Raw data were converted to pM cAMP using the cAMP standard curve included in each run. Converted data were further analyzed in Genedata Screener (Genedata) and EC50 determinations were made from agonist dose-response curves analyzed with a curve fitting is program using a 4-parameter logistic dose response equation (Equation y=A+((B-A)/1+((C/x)^D))) where A is no stimulation, B is full stimulation, C is the EC50 and D is the Hill slope). The percent effect was determined relative to a saturating concentration of a full GLP-1R agonist (GLP-1(7-36)NH2 has 100% effect in this assay setup).
A general note: In TR-FRET formats the signal depends on donor and acceptor labels being close together.

The target in experiment [1] is T2, GLP-1R in a pancreatic insulinoma cell line (EndoC-PH1) (Homo sapiens, UniProt P43220).
T2 construct: host or cells: EndoC-βH1 human pancreatic beta cell line
Kind of experiment: EndoC cAMP Accumulation Assay (HTRF). Type of experiment: cell-based. To be noted: EndoC-PH1 human pancreatic beta cell line, endogenous GLP-1R, 30 min at rt. The text has this: EndoC cAMP Accumulation Assay
A HTRF cAMP assay (cAMP Gs dynamic kit; CisoBio Cat #62AM4PEJ) was used to identify agonists of GLP-1R in a pancreatic insulinoma cell line (EndoC-PH1). […] EndoC-PHlcells have detectable GLP-1R messenger ribonucleic acid (mRNA) as detected by quantitative polymerase chain reaction (qPCR). […] The EndoC-PH1 cell line is a valid model of human beta cells and applicable for screenings to identify novel drug target candidates (Mol. Metab., 2018, 8, 144-157). CisBio HTRF cAMP kits are based on a competitive immunoassay using cryptate-labelled anti-cAMP antibody and d2-labeled cAMP. The detection kit is intended for the direct is quantitative determination of cAMP. The specific signal (i.e. energy transfer) is inversely proportional to the concentration of cAMP in the standard or sample. Test compounds (10 mM in DMSO) were diluted into assay buffer (HBSS (Sigma #H8264) supplemented with 25 mM HEPES (Gibco #15630, pH 7.4), 0.1% BSA (Sigma #A3059) and 0.5 mM IBMX (Sigma #I7018) included fresh on the day of the assay) into 96 well U-bottom plates (Greiner #650201). Diluted compounds were transferred to ECHO source polypropelene plates (Labcyte #P-05525) and dose response curves were dispensed acoustically using ECHO 550 into black shallow-well u-bottom 384-well HTRF Assay Plates (Corning 4514). Cryovials of EndoC-H1 (supplied at 1×10e^7 cells/vial) were used directly for screening. The cryovials and were removed from N2(1) and thawed rapidly in a 37° C. water bath. The cells were resuspended in assay buffer and centrifuged at 300 g for 5 min. Cells were resuspended in assay buffer at the appropriate concentration, typically at 12e5 cells per mL (3000 cells per well, dependent on cell batch) and 2.5 μL diluted cells were added to all wells of destination plate by Multidrop combi reagent dispenser (Thermofisher). The plates were incubated at rt for 30 min. The assay was stopped by adding 2.5 μL anti-cAMP cryptate solution to all wells and 2.5 μL cAMP-d2 solution (both diluted 1:20 in lysis buffer) to columns 1-22 by Combi drop. A volume of 2.5 μL cAMP-d2 solution was added to wells E23 to P24 and 2.5 μL lysis buffer added to wells A23 to D24 by multichannel pipette. The plates were incubated at rt for 1 h and read on an Envision plate reader using excitation wavelength of 320 nm and emission of […] and 660 nm.
Raw data from Envision is converted to % DeltaF according to the manufacturer's instructions. Dose response curves are analysed via 4-Parameter Logistical Analysis and assay plate Z’ values obtained. Samples are graphed as percentage (%) activation plots compared to […] with assay window defined by negative control as basal cell is cAMP levels and positive control are defined by maximum GIP (82.5 nM) signal. GLP-1 (7-36 amide, Bachem H-6795) dose response curve was included on all plates.

T2 sequence (P43220 24-463): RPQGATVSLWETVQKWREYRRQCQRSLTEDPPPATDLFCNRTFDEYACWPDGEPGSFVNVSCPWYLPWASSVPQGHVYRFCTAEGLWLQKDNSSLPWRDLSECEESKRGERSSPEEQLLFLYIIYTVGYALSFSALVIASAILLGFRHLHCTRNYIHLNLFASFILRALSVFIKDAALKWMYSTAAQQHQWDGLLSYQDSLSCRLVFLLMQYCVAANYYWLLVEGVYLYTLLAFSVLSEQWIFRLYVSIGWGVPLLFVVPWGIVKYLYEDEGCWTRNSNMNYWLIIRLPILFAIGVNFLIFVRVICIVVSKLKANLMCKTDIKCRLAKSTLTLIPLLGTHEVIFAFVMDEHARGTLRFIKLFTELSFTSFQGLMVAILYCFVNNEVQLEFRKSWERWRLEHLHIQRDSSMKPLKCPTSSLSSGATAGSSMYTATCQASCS
T1 sequence (P43220 24-463 L260F): as the sequence (P43220 24-463) above, with L237F counted along it

As a reminder, the EC50 is the concentration at which the effect is half-maximal. With `C[C@]1(c2ccc(Cl)cn2)Oc2cccc(N3CCN(Cc4nc5c(Cl)cc(C(=O)O)cc5n4C[C@@H]4CCO4)[C@H]4CC[C@H]43)c2O1` (single isomer, unassigned) [Example 20d, 4-Chloro-2-(((1R*,6S*)-5-((R*)-2-(5-chloropyridin-2-yl)-2-methylbenzo[d][1,3]dioxol-4-yl)-2,5-diazabicyclo[4.2.0]octan-2-yl)methyl)-1-(((S)-oxetan-2-yl)methyl)-1H-benzo[d]imidazole-6-carboxylic acid], the EC50 on human GLP-1R receptor amounted to 2.5 nM; in experiment [1], 2.8 nM.

Turning to `C[C@]1(c2ccc(Cl)cn2)Oc2cccc(N3CCN(Cc4nc5c(Cl)cc(C(=O)O)cc5n4CC4(CC#N)CC4)[C@H]4CC[C@@H]43)c2O1` (single isomer, unassigned) [Example 26c], the EC50 came out at 64 nM on human GLP-1R receptor and 160 nM in experiment [1].

In the case of `COc1cc(C(=O)O)cc2c1nc(CN1CCN(c3cccc4c3O[C@@](C)(c3ccc(Cl)cn3)O4)[C@H]3CC[C@@H]31)n2CCOC1CC1` (relative stereo) [Example 27, rel-2-(((1R,6R)-5-((R)-2-(5-Chloropyridin-2-yl)-2-methylbenzo[d][1,3]dioxol-4-yl)-2,5-diazabicyclo[4.2.0]octan-2-yl)methyl)-1-(2-cyclopropoxvethyl)-4-methoxy-1H-benzo[d]imidazole-6-carboxylic acid], the EC50 on human GLP-1R receptor was 65 nM; in experiment [1], 200 nM.

On to `COc1cc(C(=O)O)cc2c1nc(CN1CCN(c3cccc4c3O[C@@](C)(c3ccc(Cl)cn3)O4)[C@@H]3CC[C@@H]31)n2C[C@@H]1CCCO1` (single isomer, unassigned) [Example 8d], for which the EC50 at human GLP-1R receptor worked out at 93 nM; in experiment [1], 370 nM.

Take `COc1cc(C(=O)O)cc2c1nc(CN1CCN(c3cccc4c3O[C@@](C)(c3ccc(Cl)cn3)O4)[C@@H]3CC[C@@H]31)n2C[C@@H]1CCCO1` (single isomer, unassigned) [Example 8a]: the results for the EC50 (on human GLP-1R receptor; in experiment [1]) were 6.2 nM and 6.6 nM, respectively.

On to `C[C@]1(c2ccc(Cl)cn2)Oc2cccc(N3CCN(Cc4nc5ccc(C(=O)O)cc5n4C[C@@H]4CCO4)[C@H]4CC[C@H]43)c2O1` (single isomer, unassigned) [Example 5d, 2-((1R*,6S*)-5-(R*)-2-(5-Chloropyridin-2-yl)-2-methylbenzo[d][1,3]dioxol-4-yl)-2,5-diazabicyclo[4.2.0]octan-2-yl)methyl)-1-(((S)-oxetan-2-yl)methyl)-1H-benzo[d]imidazole-6-carboxylic acid], for which the EC50 stood at 4.7 nM on human GLP-1R receptor and 8.6 nM in experiment [1].

In the case of `COc1cc(C(=O)O)cc2c1nc(CN1CCN(c3cccc4c3O[C@@](C)(c3ccc(Cl)cn3)O4)[C@@H]3CC[C@@H]31)n2C[C@@H]1CCCO1` (relative stereo) [Example 8b, 2-((1R*,6S*)-5-(R*)-2-(5-Chloropyridin-2-yl)-2-methylbenzo[d][1,3]dioxol-4-yl)-2,5-diazabicyclo[4.2.0]octan-2-yl)methyl)-4-methoxy-1-(((S)-tetrahydrofuran-2-yl)methyl)-1H-benzo[d]imidazole-6-carboxylic acid], the EC50 came out at 400 nM on human GLP-1R receptor and 590 nM in experiment [1].

For the compound `C[C@]1(c2ccc(Cl)cn2)Oc2cccc(N3CCN(Cc4nc5c(F)cc(C(=O)O)cc5n4CC4(CC#N)CC4)[C@H]4CC[C@@H]43)c2O1` (single isomer, unassigned) [Example 23a], the EC50 was 1.1 nM at human GLP-1R receptor and 2.8 nM in experiment [1].

In the case of `C[C@]1(c2ccc(Cl)cc2F)Oc2cccc(N3CCN(Cc4nc5c(F)cc(C(=O)O)cc5n4C[C@@H]4CCO4)[C@H]4CC[C@H]43)c2O1` (relative stereo) [Example 9d, 2-((1R*,6S*)-5-(R*)-2-(4-Chloro-2-fluorophenyl)-2-methylbenzo[d][1,3]dioxol-4-yl)-2,5-diazabicyclo[4.2.0]octan-2-yl)methyl)-4-fluoro-1-(((S)-oxetan-2-yl)methyl)-1H-benzo[d]imidazole-6-carboxylic acid], the figures for the concentration for a half-maximal effect (EC50) (at human GLP-1R receptor; in experiment [1]) were 2.3 nM and 4.3 nM, respectively.

Consider `CCn1ccnc1Cn1c(CN2CCN(c3cccc4c3O[C@@](C)(c3ccc(Cl)cn3)O4)[C@H]3CC[C@@H]32)nc2c(Cl)cc(C(=O)O)cc21` (single isomer, unassigned) [Example 10b], for which the EC50 at human GLP-1R receptor is 19 nM; in experiment [1], 76 nM.

As for `C[C@]1(c2ccc(Cl)cn2)Oc2cccc(N3CCN(Cc4nc5c(Cl)cc(C(=O)O)cc5n4CC4(CC#N)CC4)[C@H]4CC[C@@H]43)c2O1` (single isomer, unassigned) [Example 26a], the EC50 at human GLP-1R receptor was determined as 350 nM; in experiment [1], 450 nM.

Take `C[C@]1(c2ccc(Cl)cn2)Oc2cccc(N3CCN(Cc4nc5ccc(C(=O)O)cc5n4C[C@@H]4CCO4)[C@H]4CC[C@H]43)c2O1` (single isomer, unassigned) [Example 5b, 2-((1R*,6S*)-5-(R*)-2-(5-Chloropyridin-2-yl)-2-methylbenzo[d][1,3]dioxol-4-yl)-2,5-diazabicyclo[4.2.0]octan-2-yl)methyl)-1-(((S)-oxetan-2-yl)methyl)-1H-benzo[d]imidazole-6-carboxylic acid]: the EC50 was found to be 18 nM at human GLP-1R receptor and 120 nM in experiment [1].

With `C[C@]1(c2ccc(Cl)cc2F)Oc2cccc(N3CCN(Cc4nc5c(F)cc(C(=O)O)cc5n4C[C@@H]4CCO4)[C@H]4CC[C@H]43)c2O1` (single isomer, unassigned) [Example 9a], the values for the EC50 (on human GLP-1R receptor; in experiment [1]) were 57 nM and 340 nM, respectively.
